Laboratory results reported in patent US10722466B2, “Liposomal formulation for use in the treatment of cancer” (LES LABORATOIRES SERVIER, priority 2016, dated 2020).

Key:
[1] = Aqueous solubility of Compound A; type: physicochemical; settings: all pHs, including physiologically relevant pHs
[2] = In vitro release assay: release of Compound A from SUV to acceptor multilamellar vesicles (MLVs); type: physicochemical
Description: The aim of this experiment was to investigate the release rate of Compound A from small unilamellar vesicles (SUV; used here as a drug carrier system, see Example 3A) to large multilamellar vesicles (MLVs) consisting of egg phospholipids, and used as a lipophilic acceptor for drug released (see Shabbits J. A., Chiu G. N. and Mayer L. D. “Development of an in vitro drug release assay that accurately predicts in vivo drug retention for liposome-based delivery systems” Journal of Controlled Release 2002, 84(3), 161-170).
Multilamellar vesicles were prepared by using the Film-Hydration method. In short, egg phospholipids (Lipoid E 80 S) were weighed out and completely dissolved in organic solvent (EtOH/DCM at 4:1 v/v) to assure a homogenous mixture of all components.
Next, the organic solvent was removed using rotary evaporation (first step: 200 mbar, 50° C., 2 hours; second step: 30 mbar, 50° C., 45 minutes) to yield a homogenous lipid film. To assure complete removal of the organic solvent, the flask was flushed with nitrogen. Next, the film was rehydrated using phosphate buffered saline (PBS, pH 7.4) yielding MLVs and upon complete rehydration the MLVs were exposed to sonication for 15 minutes.
To have the MLVs resuspended in the same buffer system as the SUVs, the suspension was centrifuged for 10 minutes at 14,000 g, the supernatant (PBS) was removed, and replaced by sucrose histidine buffer. Lastly, the mixture was vortexed thoroughly to assure complete redispersion of the MLVs in the new medium before starting the release experiment.
SUVs (donor) were mixed with MLVs (acceptor) in a 25 ml Erlenmeyer flask with a stopper under stirring (500 rpm) at various ratios (1:40, 1:100, 1:200, 1:500; SUV:MLV v/v). 1 ml samples were taken at different time points and immediately centrifuged (14′000 rpm, 10 minutes) to separate the MLVs from SUVs for further processing. FIG. 3 herein is a schematic depicting the principle of the MLV-based release assay.
Next, the MLV portion was removed via suction and 50 μl of the SUV portion were mixed with 450 μl of ACN:H2O for HPLC sample preparation. The sample was then centrifuged (14′000 rpm, 10 minutes), the supernatant was filtered using a 0.22 μm filter and injected into the HPLC for analysis.
A high performance liquid chromatography (HPLC) system with UV detection including the following equipment settings and solvent systems were employed:
Compound A release was measured using MLVs as the acceptor compartment. Here, Compound A-loaded SUVs (7.5 mg/ml) were added to these MLVs at different ratios (v/v).
Note: For all MLV release experiments, the maximum concentration (maxC=100%) was obtained by diluting the 7.5 mg/ml loaded SUVs 1 to 40, 1 to 100, 1 to 200, or 1 to 500 (v/v) in Sucrose Histidine buffer instead of MLVs.

Initial amount of Compound A still detectable in the SUV portion ([2]; SUV:MLV 1 to 40 (v/v), after 2 minutes, 7.5 mg/ml loaded SUVs): about 44% | Compound A released or transferred to the acceptor MLV ([2]; SUV:MLV 1 to 40 (v/v), t=2 minutes): ~60% | Compound A released to the acceptor MLV ([2]; SUV:MLV 1 to 100 (v/v), t=2 minutes): ~70% | Compound A released to the acceptor MLV ([2]; SUV:MLV 1 to 200 (v/v), t=2 minutes): ~80% | Compound A released to the acceptor MLV ([2]; SUV:MLV 1 to 500 (v/v), t=2 minutes): ~90% | Drug substance released (maximum over the ratios tested) ([2]; after only 2 minutes): up to 90%
Structure (SMILES): COc1ccccc1-c1nccc(COc2ccccc2CC(Oc2ncnc3sc(-c4ccc(F)cc4)c(-c4ccc(OCCN5CCN(C)CC5)c(Cl)c4C)c23)C(=O)O)n1 [Compound A, (2R)-2-{[(5Sa)-5-{3-chloro-2-methyl-4-[2-(4-methylpiperazin-1-yl)ethoxy]phenyl}-6-(4-fluorophenyl)thieno[2,3-d]pyrimidin-4-yl]oxy}-3-(2-{[2-(2-methoxyphenyl)pyrimidin-4-yl]methoxy}phenyl)propanoic acid]
Aqueous solubility [1]: limited aqueous solubility across all pHs
